Experimental data: patent publication US20050059639A1, “Ophthalmic compositions and method for treating eye discomfort and pain” (priority 2003, published 2005)
Marks after values point to notes of the source that are not given here.

Experiments:
[1] = tested on: tongue of human volunteers; experiment: Cooling sensations when applied to the tongue of human volunteers; format: in vivo; details: for Duration of Action: duration of the cooling action on the tongue; for Relative Potency: reciprocal of threshold, normalized to unity for analogs with 1.25 μg/ml; for Threshold: threshold for producing cooling sensations on the tongue of human volunteers
Procedure: (§1) The therapeutic concentrations of the preferred analogs are in the range of 10 to 80 μg/ml […], but concentrations as low as 0.1 μg/ml may elicit effects in sensitive individuals.

[2] = tested on: medial canthus of the eyelids; experiment: Sensory quality of the solution on the medial canthus of the eyelids / eye surface; format: in vivo, human; details: for Sensory Quality: solution applied on the medial canthus of the eyelids
Source text: [table] In selecting a particular analog, it is desirable to have one that has a long duration of action (several hours) and minimal stinging and burning sensations. These parameters are not predicted by the cooling effect of these substances on the human tongue, but must be determined by experiment. […] Thus, the hexyl analog is the preferred therapeutic of the two. The other particularly preferred analogs that have the desired qualities of long duration of action and absence of stinging and burning effects are identified with an asterisk in Table 1.

[3] = tested on: eye disorders; experiment: Estimate of ideal therapeutic eye drop concentration to relieve eye disorders; format: in vivo, human; details: for Eye Therapy: estimate of ideal therapeutic concentration applied as eye drops to relieve eye disorders
Procedure: as §1
The potency of certain specific trialkyl phosphine oxides, e.g. isopropyl, sec-butyl, n-octyl-phosphine oxide, in relieving eye discomfort is exceptionally high, on the order of 0.001%. In such situations, an alternative preferred description of an effective unit dose is 0.01 mg/ml or 10 μg/ml, which is equivalent to 0.001% weight percent.

[4] = tested on: stinging and burning sensations on the eye; experiment: Adjuncts to reduce stinging of trialkyl phosphine oxide eye drops; format: in vivo, human
Procedure: I conclude that hydrocarbon polyols are useful adjuncts for preparing a therapeutic formulation of a trialkyl phosphine oxide eye drop solution.
(§2) A 0.2% (2.0 mg/ml) disec-butyl-n-heptyl-phosphine oxide eye drop solution was prepared by adding the compound to an isotonic solution of sodium chloride, 0.65% in deionized water, monobasic potassium phosphate/sodium hydroxide buffer, preserved with disodium EDTA and benzalkonium chloride. The liquid was individually aliquoted into a ¼ oz. bottle with a Yorker spout (E.D. Luce Packaging) suitable for droplet delivery. This solution was then applied to the closed eyes of three volunteers, with two to three drops of the solution applied to each eye. The subjects complained of stinging and burning sensations on the eye surface, lasting for about 2 min. A series of six solutions were then prepared in which six different hydrocarbon polyols were added to the parent 0.2% solution. The individual additions were 1.5% sucrose, 1.5% fructose, 1.5% dextrose, 1.5% lactose, 1.5% inositol, or 0.5% carboxymethylcellulose. […] There was some tearing, but no evidence of increased eye redness from the hydrocarbon polyols and subjective complaints of discomfort were minimal.

[5] = tested on: stinging and burning sensations on the eye; experiment: as above; format: in vivo, human; remark: listed apart in the source
[6] = tested on: closed eyes of volunteers; experiment: Eye drops applied to medial canthus of closed eyes, kept closed about 1 min; format: in vivo, human; details: 0.2% (2.0 mg/ml) solution, 2-3 drops, closed eyes, three volunteers
Procedure: For trialkyl phosphine oxide eye drop solutions of this invention, I have discovered an indirect method of application as follows. The eye dropper is aimed at the medial canthus (nasal corner) of the eye, the eye is then closed, the dispenser is squeezed to emit the eye drops, and the eye kept closed for about 1 min. This method of application can substantially avoid stinging and burning sensations. Apparently, the adaptation period of about 1 min allows the sensory processes to develop tolerance to the initial stinging and burning stimuli. For example, if a 0.4 mg/ml solution of disec-butyl, n-hexyl-phosphine oxide [synonym, 1-(Di-sec-butyl-phosphinoyl)-hexane] in isotonic-buffered saline is dropped on the open eye, it causes stinging and burning for about 1 min. However, applied onto the corners of the eye, with the eyes closed for 1 min, these stinging and burning sensations are avoided. The medial canthus is preferred to the lateral canthus because the geometry of the orbit permits a longer residence time for the eye drop applied to the medial corner. Drops applied to the lateral canthus are less precisely located and rapidly dribble off the zygoma (cheekbone). A user can be instructed in this indirect method by including the instructions on packaging labels and/or inserts associated with the doses.
The solution, as in Example 1, was then used by another three subjects with the instruction to apply the droplets to the nasal corner of the eye (medial canthus), without touching the tip of the dispenser to the eyelid surface, to let the solution seep into the eyelids and eye surface but to keep eyes closed for at least one minute. The subjects reported slight sensations of stinging when the eyes were opened, effects that lasted for less than 1 minute, followed by sensations of coolness and comfort lasting at least two hours. The experiment was then repeated, but with a higher concentration of 0.2% of disec-butyl-n-hexyl-phosphine oxide.
as §2

Compound | Duration of Action [1] [min] | Relative Potency [1] | Threshold [1] [µg/mL] | Sensory Quality [2] | Eye Therapy [3] | also measured
CCCCCCCP(=O)(CCCCCCC)C(C)(C)C [n-C7H15 / n-C7H15 / tert-C4H9] | 10 | 0.06 | 20 | cool/sting | >150 µg/mL | 
OC[C@H]1O[C@@H](O[C@H]2[C@H](O)[C@@H](O)C(O)O[C@@H]2CO)[C@H](O)[C@@H](O)[C@H]1O (stereo partly shown) [lactose] |  |  |  |  |  | effect of adjunct on initial stinging sensations ([4]; in vivo): reduce the initial stinging sensations
carboxymethylcellulose |  |  |  |  |  | effect of adjunct on stinging and burning sensations of several trialkyl phosphine oxide solutions ([5]; in vivo): substantially reduced; effect of adjunct on initial stinging sensations ([4]; in vivo): reduce the initial stinging sensations
OC[C@H]1O[C@H](O[C@]2(CCl)O[C@H](CCl)[C@@H](O)[C@@H]2O)[C@H](O)[C@@H](O)[C@H]1Cl [sucralose, reference compound] |  |  |  |  |  | effect of adjunct on stinging and burning sensations of several trialkyl phosphine oxide solutions ([5]; in vivo): not active
CCCCCCCP(=O)(CCC(C)C)C(C)C (stereo not shown) [n-C7H15 / iso-C5H11 / iso-C3H7] | 5 | 1 | 1.25 | cool/oily | 20* μg/ml | 
CCCCCCCCCP(=O)(CC(C)C)CC(C)C [n-C9H19 / iso-C4H9 / iso-C4H9] | 15 | 0.025 | 50 | cool/sting | >250 µg/mL | 
CCCCCCP(=O)(C(C)C)C(C)CC (stereo not shown) [n-C6H13 / iso-C3H7 / sec-C4H0] | 45 | 2.5 | 0.5 | cool/sting | 15 µg/mL | 
CCCCCCCCP(=O)(C(C)CC)C(C)CC (stereo not shown) [n-C8H17 / sec-C4H9 / sec-C4H9] | 10 | 2.5 | 0.5 | cool/sting | 30 µg/mL | 
CCCCCCP(=O)(CCCC)C(C)(C)C (stereo not shown) [n-C6H13 / tert-C4H9 / n-C4H9] | 5 | 0.8 | 1.5 | cool only | 25* μg/ml | 
O=C(CO)[C@@H](O)[C@H](O)[C@H](O)CO [fructose] |  |  |  |  |  | effect of adjunct on stinging and burning sensations of several trialkyl phosphine oxide solutions ([5]; 1 to 2% sucrose, other carbohydrates, 0.5% carboxymethylcellulose, sucralose at equivalent sweetening concentrations): substantially reduced; effect of adjunct on initial stinging sensations ([4]; added to 0.2% disec-butyl-n-heptyl-phosphine oxide solution, 1.5% (0.5% for carboxymethylcellulose)): reduce the initial stinging sensations
CCCCCCCP(=O)(C(C)C)C(C)CC (stereo not shown) [n-C7H15 / iso-C3H7 / sec-C4H9] | 18 | 10 | 0.1 | cool only | 10* μg/ml | 
CCCCCCP(=O)(CCC)C(C)(C)C (stereo not shown) [n-C6H13 / tert-C4H9 / n-C3H7] | 7.5 | 0.36 | 3.5 | cool only | 30* μg/ml | 
CCCCCCP(=O)(CCC(C)C)C(C)C (stereo not shown) [n-C6H13 / iso-C5H11 / iso-C3H7] | 5 | 1 | 1.25 | cool only | 25* μg/ml | 
CCCCCP(=O)(CC)CCCCC [n-C5H11 / n-C5H11 / n-C2H5] | 5 | <0.008 | >150 | cool/sting | >1000 µg/mL | 
O[C@H]1[C@H](O)[C@@H](O)[C@H](O)[C@@H](O)[C@H]1O [inositol] |  |  |  |  |  | effect of adjunct on stinging and burning sensations of several trialkyl phosphine oxide solutions ([5]; in vivo): substantially reduced; effect of adjunct on initial stinging sensations ([4]; in vivo): reduce the initial stinging sensations
OC[C@H]1O[C@@](CO)(O[C@H]2O[C@H](CO)[C@@H](O)[C@H](O)[C@H]2O)[C@@H](O)[C@@H]1O [sucrose] |  |  |  |  |  | effect of adjunct on stinging and burning sensations of several trialkyl phosphine oxide solutions ([5]; in vivo): substantially reduced; effect of adjunct on initial stinging sensations ([4]; in vivo): reduce the initial stinging sensations
CCCCCCCCCCP(=O)(CCC(C)C)CCC(C)C [n-C10H21 / iso-C5H11 / iso-C5H11] | 10 | <0.005 | >250 | cool/sting | >1500 µg/mL | 
CCCCCCP(=O)(CC)CCCCCC [n-C6H13 / n-C6H13 / n-C2H5] | 5 | 0.06 | 20 | cool/sting | >150 µg/mL | 
CCC(C)P(=O)(CCC(C)C)CCC(C)C (stereo not shown) [iso-C5H11 / iso-C5H11 / sec-C4H9, di-isopentyl-sec-butyl phosphine oxide] | 5 | 0.06 | 20 | cool/sting | >150 µg/mL | 
CCCCCCCCP(=O)(C(C)C)C(C)CC (stereo not shown) [n-C8H17 / iso-C3H7 / sec-C4H9, isopropyl, sec-butyl, n-octyl-phosphine oxide] | 18 | 10 | 0.1 | cool only | 10* μg/ml | potency in relieving eye discomfort ([3]; weight percent, equivalent to 10 μg/ml): ~0.001%
CCCP(=O)(CCC)CCC(C)C [i-C5H11 / n-C3H7 / n-C3H7] | 5 | <0.005 | >250 | cool/sting | >1500 µg/mL | 
CCCCCCCCP(=O)(CCCCCC)CCCCCC [n-C8H17 / n-C6H13 / n-C6H13] | 10 | <0.005 | >250 | cool/sting | >1500 µg/mL | 
CCCCCCCP(=O)(C(C)CC)C(C)CC (stereo not shown) [n-C7H15 / sec-C4H9 / sec-C4H9, disec-butyl-n-heptyl-phosphine oxide] | 10 | 0.8 | 1.5 | cool/sting | 15 µg/mL | potency on the human tongue (comparison of the two analogs) ([1]; hexyl vs heptyl analog): about equipotent; activity in producing stinging and burning sensations relative to hexyl analog ([2]; eye surface): three times more active; duration of action on the eye surface relative to hexyl analog ([2]; eye surface): half the duration of action; duration of stinging and burning sensations on the eye surface [6]: about 2 min
